Data as given in US20240335563A1, “EPIGENETIC MODULATORS FOR TISSUE REPROGRAMMING” (THE TRUSTEES OF INDIANA UNIVERSITY, priority 2021, published 2024).

Key:
mouse fibroblasts = details: LSD1 inhibition; cited from earlier work
intermediate iPSCs = details: cited from earlier work; for SCR efficiency: HDAC inhibition
[1] = test system: streptozotocin-induced diabetic C57BL/6 male mice; experiment: Blood glucose in streptozotocin-induced diabetic mice after TNT-PMGF, with intradermal epigenetic modulator; format: in vivo; details: p<0.001 vs. week 4
[2] = test system: neural precursor cells and MEFs; details: G9a inhibition, H3K9 hypomethylation; cited from earlier work
ESC-specific genes = details: alone, without transduction of the reprogramming factors; cited from earlier work

**Q.** Which “reprogramming efficiency of mouse fibroblasts” value (mouse fibroblasts) does the source give for `N[C@@H]1C[C@H]1c1ccccc1` (racemic) [Parnate, tranylcypromine] here?
**A.** Its value is “increases the reprogramming efficiency”.

**Q.** For `Nc1ncn([C@@H]2O[C@H](CO)[C@@H](O)[C@H]2O)c(=O)n1` [5-Azacytidine], which “reprogramming of intermediate iPSCs” value (intermediate iPSCs; DNMT inhibition during reprogramming) is on record?
**A.** The value was “allows intermediate iPSCs to be fully reprogrammed”.

**Q.** And the average blood glucose ([1]; week 5, after 5-Azacytidine 10 mg/Kg intradermally at TNT sites thrice in week 4, TNT PMGF non-responders)?
**A.** The average blood glucose was ~275 mg/dL.

**Q.** And the blood glucose ([1]; week 8, after subsequent 5-Azacytidine injection at week 7)?
**A.** Its blood glucose is ~170 mg/dL.

**Q.** And the blood glucose ([1]; week 9, after subsequent 5-Azacytidine injection at week 7)?
**A.** The blood glucose was 169 mg/dL.

**Q.** For `COc1cc2nc(N3CCCN(C)CC3)nc(NC3CCN(Cc4ccccc4)CC3)c2cc1OC` [BIX-01294], which “reprogramming of neural precursor cells and MEFs into iPSCs” value [2] is on record?
**A.** The value was “enhances the reprogramming”.

**Q.** Which “upregulation of ESC-specific genes” value (ESC-specific genes) does the source give for `CC(/C=C/C(=O)NO)=C\[C@@H](C)C(=O)c1ccc(N(C)C)cc1` [trichostatin A] here?
**A.** The value was “sufficient to upregulate ESC-specific genes”.

**Q.** What about the SCR efficiency (intermediate iPSCs) of the same compound?
**A.** Its SCR efficiency is “improves SCR efficiency”.

**Q.** For `CCCC(CCC)C(=O)O` [valproic acid], which SCR efficiency (intermediate iPSCs) is on record?
**A.** Its SCR efficiency is “improves SCR efficiency”.
